Measured values published in the supplement of paper PMC10307832.

Columns and labels:
Assay in all cases: relative viability (nuclei count vs DMSO), 5 days (fraction); higher = more cells survive
[1] = compound: CCC1=CN=CN=C1N2CCN(CC2)CC3=NC4=C(N3)C=C(C=C4)C(F)(F)F + CC(=O)c1c(C)c2cnc(Nc3ccc(N4CCNCC4)cn3)nc2n(C2CCCC2)c1=O [Palbociclib] (partner 0.5 µM)
Outline: (§1)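 A single step with final 0.05% Triton X-100, 1% formaldehyde and 1 ug/ml Hoechst fixed the cells and stained nuclei 5 days after treatment. Lung cancer cell lines in 1536-well plates had been treated by pin tool the day after seeding with one drug alone or a fixed anchor-drug dose plus five library-drug doses (not always all listed) in √10 steps, and nuclei were counted on 4× images. Relative viability is the ratio of nuclei in treated wells to nuclei in vehicle wells, taken as the median of duplicate plates.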

[2] = compound: CCC1=CN=CN=C1N2CCN(CC2)CC3=NC4=C(N3)C=C(C=C4)C(F)(F)F + CC(C)C[C@H](NC(=O)[C@H](Cc1ccccc1)NC(=O)c1cnccn1)B(O)O [Bortezomib] (partner 0.002 µM)
Outline: as §1

[3] = compound: CCn1c(-c2nonc2N)nc2cnc(Oc3cccc(NC(=O)c4ccc(OCCN5CCOCC5)cc4)c3)cc21 + C[C@]1(O)C[C@@H](c2nc(-c3ccc4ccc(-c5ccccc5)nc4c3)c3c(N)nccn32)C1 [Linsitinib] (partner 1 µM)
Outline: as §1

Mirin + OSI-027 = compound: N=C1NC(=O)/C(=C/c2ccc(O)cc2)S1 [Mirin] + COc1cccc2cc(-c3nc([C@H]4CC[C@H](C(=O)O)CC4)n4ncnc(N)c34)[nH]c12 [OSI-027] (partner 0.5 µM)
Outline: as §1

| Cell Line | relative viability ([1]; first compound 0.04 µM) | relative viability ([1]; first compound 0.1265 µM) | relative viability ([1]; first compound 0.4 µM) | relative viability ([1]; first compound 1.265 µM) | relative viability ([1]; first compound 4 µM) | relative viability ([2]; first compound 0.04 µM) | relative viability ([2]; first compound 0.1265 µM) | relative viability ([2]; first compound 0.4 µM) | relative viability ([2]; first compound 1.265 µM) | relative viability ([2]; first compound 4 µM) | relative viability ([3]; first compound 0.04 µM) | relative viability ([3]; first compound 0.1265 µM) | relative viability ([3]; first compound 0.4 µM) | relative viability ([3]; first compound 1.265 µM) | relative viability ([3]; first compound 4 µM) | relative viability (Mirin + OSI-027; first compound 0.25 µM) | relative viability (Mirin + OSI-027; first compound 0.7906 µM) | relative viability (Mirin + OSI-027; first compound 2.5 µM) | relative viability (Mirin + OSI-027; first compound 7.906 µM) | relative viability (Mirin + OSI-027; first compound 25 µM) |
| --- | --- | --- | --- | --- | --- | --- | --- | --- | --- | --- | --- | --- | --- | --- | --- | --- | --- | --- | --- | --- |
| NCI-H1437 | 0.324 | 0.309 | 0.263 | 0.303 | 0.269 | 0.528 | 0.484 | 0.431 | 0.474 | 0.504 | 1.31 | 1 | 1.05 | 0.742 | 0.549 | 0.853 | 0.895 | 0.948 | 0.832 | 0.643 |
| NCI-H1651 | 0.558 | 0.562 | 0.513 | 0.463 | 0.532 | 0.876 | 0.926 | 0.953 | 0.851 | 0.96 | 1.15 | 1.1 | 0.986 | 0.859 | 0.642 | 0.782 | 0.701 | 0.877 | 0.549 | 0.662 |
| NCI-H1666 | 0.609 | 0.609 | 0.669 | 0.659 | 0.608 | 0.799 | 0.714 | 0.896 | 0.811 | 0.779 | 0.797 | 0.985 | 0.949 | 0.667 | 0.413 | 0.795 | 0.949 | 0.806 | 0.79 | 0.682 |
| NCI-H1734 | 0.33 | 0.362 | 0.344 | 0.291 | 0.317 | 0.919 | 0.853 | 0.907 |  | 0.854 | 1.06 | 0.796 | 0.807 | 0.648 | 0.485 | 0.636 | 0.574 | 0.525 | 0.548 | 0.488 |
| NCI-H1755 | 0.475 | 0.478 | 0.45 | 0.437 | 0.49 | 1.02 | 0.882 | 0.953 | 0.816 | 1.06 | 1.08 | 1.01 | 0.936 | 0.963 | 0.937 | 0.686 | 0.75 | 0.662 | 0.687 | 0.766 |
| NCI-H1792 | 0.68 | 0.616 | 0.687 | 0.542 | 0.611 | 0.885 | 0.782 | 0.926 | 1.04 | 1 | 0.65 | 0.572 |  | 0.423 | 0.512 | 0.724 | 0.746 | 0.745 |  | 0.634 |
| NCI-H1915 | 0.478 | 0.525 | 0.515 | 0.451 | 0.522 | 1.01 | 0.907 | 0.966 | 0.962 | 1.01 | 1.16 | 1.11 | 1.07 | 1.07 | 1.06 | 0.586 |  | 0.625 | 0.579 | 0.6 |
| NCI-H1975 | 0.62 | 0.479 | 0.568 | 0.461 | 0.577 | 0.449 | 0.341 | 0.363 | 0.335 | 0.318 | 0.833 | 0.65 | 0.895 | 0.385 | 0.293 | 0.783 | 0.733 | 0.692 | 0.82 | 0.626 |
| NCI-H1993 | 0.661 | 0.586 | 0.622 | 0.586 | 0.654 | 1.16 | 0.952 | 0.927 | 1.25 | 1.01 | 0.701 | 0.762 |  | 0.699 | 0.702 | 0.549 |  | 0.578 | 0.496 | 0.539 |
| NCI-H2009 | 0.195 | 0.238 | 0.184 | 0.15 | 0.0584 | 1.13 | 0.999 | 1.03 | 0.716 | 0.982 | 1.01 | 0.99 | 0.999 | 0.701 | 0.423 | 0.646 | 0.662 | 0.706 | 0.413 | 0.522 |
| NCI-H2023 | 0.422 | 0.347 | 0.358 | 0.376 | 0.345 | 1.04 | 1.03 | 0.964 | 0.837 | 1.17 | 0.802 | 0.694 | 0.71 | 0.566 | 0.482 | 0.407 | 0.466 | 0.401 | 0.356 | 0.285 |
| NCI-H2085 | 0.371 | 0.398 | 0.473 | 0.488 | 0.442 | 0.927 | 0.949 | 1.13 | 1.03 | 1.04 | 1.02 | 0.9 | 0.756 | 0.792 | 0.683 | 0.873 | 0.674 | 0.748 | 0.603 | 0.584 |
| NCI-H2087 | 0.264 | 0.235 | 0.242 | 0.184 | 0.201 | 0.859 | 0.805 | 0.824 | 0.65 | 0.766 |  | 0.682 | 0.762 | 0.747 | 0.828 | 0.633 | 0.436 | 0.374 | 0.253 | 0.358 |
| NCI-H2126 | 0.365 | 0.333 | 0.376 | 0.354 | 0.369 | 1.05 | 1.08 | 1.19 | 1.16 | 1.14 | 0.759 | 0.704 | 0.679 | 0.759 | 0.742 | 0.76 | 0.655 | 0.585 | 0.773 | 0.579 |
| NCI-H2228 |  | 0.595 | 0.684 | 0.472 | 0.877 | 1.29 | 1.11 | 1.19 | 1.05 | 1.11 | 1.3 | 0.912 | 0.906 | 0.992 | 0.51 | 0.57 | 0.44 | 0.515 | 0.575 | 0.538 |
| NCI-H2347 | 0.386 | 0.396 | 0.424 | 0.368 | 0.422 | 1.07 | 0.92 | 0.724 |  | 1.04 | 0.981 | 0.927 | 0.93 | 0.447 | 0.48 | 0.459 | 0.426 | 0.4 | 0.476 | 0.36 |
| NCI-H2405 | 0.578 | 0.53 | 0.513 |  | 0.594 | 0.892 | 0.703 | 0.968 |  | 1 | 0.955 | 0.568 | 0.417 | 0.31 | 0.263 | 0.625 | 0.612 | 0.585 | 0.627 | 0.508 |
| NCI-H3122 | 0.176 | 0.226 | 0.207 | 0.172 | 0.172 | 1.11 | 0.968 | 1 | 1.03 | 1.05 | 1.04 | 0.985 | 0.991 | 1 | 0.934 | 0.954 | 0.809 | 0.921 | 0.887 | 0.902 |
| PC-3 [JPC-3] |  | 0.53 | 0.56 | 0.565 | 0.543 | 0.838 | 0.765 | 0.757 | 0.807 | 0.854 | 0.945 | 1 | 0.969 | 0.968 | 0.947 | 0.797 | 0.739 | 0.774 | 0.669 | 0.753 |
| PC-14 | 0.519 | 0.518 | 0.548 | 0.608 | 0.506 | 0.938 | 0.815 | 0.856 | 0.848 | 0.935 | 1 | 0.901 | 0.878 | 0.716 | 0.648 | 0.872 | 0.742 | 0.792 |  | 0.728 |
| RERF-LC-KJ | 1.05 | 1.06 | 1.02 | 0.971 | 0.923 | 1.04 | 1.01 | 1.11 | 0.941 | 1.11 | 1.06 | 0.976 | 0.877 | 0.721 | 0.637 | 0.691 | 0.59 | 0.596 | 0.651 | 0.425 |
| SK-LU-1 | 0.412 | 0.394 | 0.41 | 0.26 | 0.418 | 1.09 | 1.03 | 1.16 |  | 1.13 | 1.17 | 0.861 | 0.906 | 0.439 | 0.423 | 0.387 | 0.35 | 0.333 | 0.276 | 0.228 |
| SW 1573 | 0.345 | 0.406 | 0.384 | 0.262 | 0.32 | 1.09 | 1.08 | 0.937 | 0.893 | 0.892 | 0.905 | 0.744 | 0.833 | 0.479 | 0.342 | 0.616 | 0.428 | 0.625 | 0.524 | 0.307 |
